Values of other authors in article PMC12018205, “Mutant protein chemical rescue: From mechanisms to therapeutics” (The Journal of Biological Chemistry, 2025).
Values belong to the molecule of their own block, whether it stands above or below them.

What was measured:
[1] = system: R388A v-Src in SYF MEF cells; conditions: live cells, FRET-based cell sensor
H122G NDPK = system: H122G NDPK; parameters: method as in PMID 10200157
[2] = system: β-class carbonic anhydrase Asp34 to Ala mutant; parameters: method as in PMID 12107142; conditions: without affecting kcat/KM
[3] = system: cytomegalovirus protease assemblin His to Gly mutant; parameters: method as in PMID 16036911; conditions: in vitro and in mammalian cells
[4] = system: SpyCas9 H840A and H840G mutants; parameters: method as in PMID 33428390; conditions: 100 mM; both H840 mutants
subtilisin H64A mutant = system: subtilisin H64A mutant; parameters: method as in PMID 2059622; conditions: much lesser degree than His-containing substrate
[5] = system: Csk, Src, and Abl kinases Arg to Ala mutants
[6] = system: rationally designed proteins and temperature-sensitive library mutants in yeast
[7] = system: β-glycosidase (β-gly) W33G mutant; parameters: method as in PMID 22655749
Y319A TbtD = conditions: 10 mM
[8] = system: Y14G-mutant ketosteroid isomerase; conditions: 2 mM
[9] = system: S-mandelate dehydrogenase R277G mutant; parameters: method as in PMID 10955993
[10] = system: rat pancreatic carboxypeptidase A R127A mutant; parameters: method as in PMID 1304353; conditions: up
[11] = system: ornithine transcarbamylase R57G variant
[12] = system: rat pancreatic carboxypeptidase A R127M mutant; parameters: method as in PMID 1304353
[13] = system: trehalose phosphorylase R507A mutant; parameters: method as in PMID 18205830; conditions: up
mutant forms of CFTR = system: mutant forms of CFTR; parameters: method as in PMID 19846789; conditions: some mutant forms; epithelial cell membranes
I278T CBS = system: I278T CBS; parameters: method as in PMID 17540596
galactocerebrosidase = system: galactocerebrosidase; parameters: method as in PMID 24913062; conditions: Krabbe disease
[14] = system: aspartate aminotransferase K258C mutant; parameters: method as in PMID 1907854; conditions: aminoethylation of K258C
[15] = system: Lys80-mutant leucine dehydrogenase; conditions: One M; from 1.5% unrescued
[16] = system: E361G-mutant β-galactosidase; conditions: E361G mutant rescued
[17] = system: mutant α-galactosidase A (GalA); parameters: method as in PMID 9883849; conditions: prevents aggregation in the endoplasmic reticulum
[18] = system: R359C GS (glutamine synthetase); parameters: method as in PMID 7912599; conditions: for rescue of kcat / reactivation of R359C mutant: covalent modification of Cys
[19] = system: mutant PAH (phenylalanine hydroxylase); conditions: PAH stabilization and enhancement of enzyme kinetics
[20] = system: N370S-mutant β-glucosidase; parameters: method as in PMID 12434014
Q227L Gα (Gsα subunit) = conditions: substrate-assisted catalysis
[21] = system: clostridial GDH D156S mutant
tripeptidyl peptidase I = system: tripeptidyl peptidase I; parameters: method as in PMID 20340139; conditions: one form
[22] = system: AS B (asparagine synthetase B) Arg325 to Ala mutant; parameters: method as in PMID 9139684; conditions: 50 mM rescue agent
[23] = system: Paenibacillus sp. dextranase glutamate mutants; conditions: high concentration of 2.4 M
mutant p53 tumors = system: mutant p53 tumors; parameters: method as in PMID 10617466; conditions: mouse xenograft studies
[24] = system: pyruvate kinase C9S/C268S/K221C triple mutant; conditions: aminoethylation of K221C
HDAC8 = system: HDAC8; parameters: method as in PMID 26463496; conditions: multiple forms
[25] = system: Y51A-mutant xylose reductase; conditions: NAD+-dependent oxidation of xylitol

Molecule: CC(=O)O [acetate]
- enhancement of D189S trypsin activity (D189S trypsin): could enhance the activity
- rescue for substrates bearing Arg at P1 versus Lys (D189S trypsin; D189S trypsin): 10 fold

Molecule: c1c[nH]cn1 [imidazole]
- time to observed tyrosine phosphorylation after treatment [1]: ≤ 1 min
- rescue of kcat/KM,ATP (H122G NDPK; ATP): 40 fold
- rescued kcat/KM,ATP, fold below that of the WT enzyme (H122G NDPK; ATP): 50 fold
- kcat/KM,ATPγS, fold higher than the unrescued condition (H122G NDPK; ATPγS): 100 fold
- rescued kcat/KM,ATPγS, fold below WT (H122G NDPK; ATPγS): 2 fold
- rescue of kcat defect [2]: rescued this defect in kcat
- complementation of lost proteolytic activity [3]: complemented efficiently
- rescue of in vitro nuclease activity [4]: substantially rescued
- pKa: approximately 7
- restoration of catalytic activity (subtilisin H64A mutant): partially restored
- rescue of activity of Arg to Ala mutants [5]: > 100 fold
- EC50 ([5]; read-out: EC50 of tyrosine kinase rescue): ~5 mM

Molecule: C[N+](C)(C)[O-] [trimethylamine-N-oxide]
- extent of rescue in vivo [6]: weak

Molecule: c1ccc2[nH]ccc2c1 [indole]
- rescue of β-gly [7]: fully rescued

Molecule: Oc1ccccc1 [phenol]
- effect on pyridine product formation (Y319A TbtD): substantial increase in pyridine formation
- rescue of activity over baseline [8]: about 10 fold
- rescued enzyme activity, % of WT activity [8]: below 1%

Molecule: CN=C(N)N [methylguanidine]
- rescued KM, within fold of the WT value [9]: ≤ 30 fold
- rescued kcat, within fold of the WT value [9]: ≤ 1.5 fold
- EC50 ([9]; read-out: half-maximal rescue (Kr)): ~10 mM
- increase in kcat of the R127A mutant [10]: up to 100 fold

Molecule: c1ccncc1 [pyridine]
- restoration of R57G variant activity [11]: not

Molecule: N=C(N)N [Guanidine]
- rescue of the R127M mutant [12]: rescued
- enhancement of enzymatic activity [13]: up to 50 fold
- increase in kcat of the R127A mutant [10]: up to 100 fold

Molecule: CC(C)(C)c1cc(C(C)(C)C)c(NC(=O)c2c[nH]c3ccccc3c2=O)cc1O [Ivacaftor]
- effect on mutant CFTR (mutant forms of CFTR): enhances their presence and transport function

Molecule: N=C(N)NCCC[C@H](N)C(=O)O [arginine]
- restoration of R57G variant activity [11]: not

Molecule: N=C(N)N [guanidinium]
- extent of rescue in vivo [6]: weak

Molecule: Cn1ccnc1 [1-methylimidazole]
- effectiveness as rescue agent [9]: not effective

Molecule: OC[C@@H](O)[C@@H](O)[C@H](O)[C@@H](O)CO [sorbitol]
- rescue of I278T CBS by chemical chaperones (I278T CBS): partially rescued

- rescue of galactocerebrosidase (galactocerebrosidase): rescued
Molecule: O=c1c(-c2ccc(O)c(O)c2)coc2cc(O)ccc12 [3′,4′,7-trihydroxyisoflavone]

Molecule: CN(C)C(=N)N [1,1-dimethylguanidine]
- effectiveness as rescue agent [9]: not effective

Molecule: NCCBr [2-bromoethylamine]
- enzymatic activity restored, % of WT aspartate aminotransferase [14]: 7%

Molecule: N [ammonia]
- deamination activity restored, % of WT leucine dehydrogenase [15]: 20%

Molecule: [N-]=[N+]=[N-] [azide]
- enhancement in transglycosylation activity over the WT enzyme [16]: 177 fold

- effect of binding on mutant GalA [17]: stabilize mutant GalA
Molecule: OC[C@H]1NC[C@H](O)[C@@H](O)[C@H]1O [DGJ, deoxygalactonojirimycin]

- rescue of kcat / reactivation of R359C mutant [18]: hardly affected
Molecule: N=C(N)CSSCC(=N)N [DTBA, 2,2′-dithiobis(acetamidine)]

- rescue of mutant PAH by excess cofactor [19]: rescue mutant forms of PAH
Molecule: C[C@H](O)[C@H](O)[C@H]1CNc2nc(N)[nH]c(=O)c2N1 [tetrahydrobiopterin]

Molecule: CCCCCCCCCN1C[C@H](O)[C@@H](O)[C@H](O)[C@H]1CO [N-(n-nonyl)deoxynojirimycin]
- effect on mutant β-glucosidase stability and trafficking to the lysosome [20]: shows promise in promoting the stability

Molecule: CCNC(=N)N [ethylguanidine]
- increase in kcat of the R127A mutant [10]: up to 100 fold

Molecule: 3,4-diamino-benzophenone phosphonoamidate-GTP [DABP-GTP]
- GTPase activity rescue with GTP analog as substrate (Q227L Gα (Gsα subunit)): nearly WT activity

Molecule: F [Fluoride, fluoride]
- maximum extent of rescue, forward reaction, increase over baseline [21]: 1000 fold
- maximum extent of rescue, reverse reaction, increase over baseline [21]: 4 fold
- EC50 ([21]; read-out: Kr, reverse reaction, reductive amination): 40 mM

Molecule: C[S+](C)[O-] [dimethyl sulfoxide]
- rescue of tripeptidyl peptidase I (tripeptidyl peptidase I): partially rescued
- rescue of I278T CBS by chemical chaperones (I278T CBS): partially rescued
- extent of rescue in vivo [6]: weak

Molecule: Cl.N=C(N)N [Guanidinium hydrochloride]
- rescued kcat, within % of the WT enzyme ([11]; R57G variant): ≤ 10%
- stimulation of kcat ([11]; R57G variant): 2000 fold
- EC50 ([11]; R57G variant, read-out: half-maximal rescue concentration (Kr)): 22 mM
- specific activity restored, % of the WT enzyme [22]: ~15%

Molecule: NCCCBr [3-bromopropylamine]
- rescue of kcat / reactivation of R359C mutant [18]: could not reactivate

Molecule: O=CO [formate]
- enhancement in transglycosylation activity over the WT enzyme [16]: 177 fold
- rescue of glutamate mutants [23]: effective

Molecule: COc1ccc(/C=C/c2nc(NCCCN(C)C)c3ccccc3n2)cc1 [CP-31398]
- effect on tumors (mutant p53 tumors): shrunk tumors

- rescue of galactocerebrosidase (galactocerebrosidase): rescued
Molecule: CN1[C@@H](CC(=O)c2ccccc2)CCC[C@H]1C[C@H](O)c1ccccc1 [α-lobeline]

Molecule: O=C(NCCI)C(F)(F)F [N-[2-iodoethyl]trifluoroacetamide]
- activity rescued, % of the WT pyruvate kinase activity [24]: 4.5%

Molecule: N=C(N)CCl [2-CA, 2-chloroacetamidine]
- kcat restored, % of the value of the WT enzyme ([18]; R359C GS after covalent modification of Cys): 70%

Molecule: O=C(NC(=S)Nc1ccccc1)c1ccccc1 [N-(phenylcarbamothioyl)-benzamide]
- rescue of HDAC8 mutants (HDAC8): partially or fully rescued

- rescue of Y51A-mutant xylose reductase [25]: partially rescued
Molecule: Br [bromide ion]
